Biological target: T1, Thyroid hormone receptor alpha (Homo sapiens, UniProt P10827)
T1 sequence (P10827 whole entry): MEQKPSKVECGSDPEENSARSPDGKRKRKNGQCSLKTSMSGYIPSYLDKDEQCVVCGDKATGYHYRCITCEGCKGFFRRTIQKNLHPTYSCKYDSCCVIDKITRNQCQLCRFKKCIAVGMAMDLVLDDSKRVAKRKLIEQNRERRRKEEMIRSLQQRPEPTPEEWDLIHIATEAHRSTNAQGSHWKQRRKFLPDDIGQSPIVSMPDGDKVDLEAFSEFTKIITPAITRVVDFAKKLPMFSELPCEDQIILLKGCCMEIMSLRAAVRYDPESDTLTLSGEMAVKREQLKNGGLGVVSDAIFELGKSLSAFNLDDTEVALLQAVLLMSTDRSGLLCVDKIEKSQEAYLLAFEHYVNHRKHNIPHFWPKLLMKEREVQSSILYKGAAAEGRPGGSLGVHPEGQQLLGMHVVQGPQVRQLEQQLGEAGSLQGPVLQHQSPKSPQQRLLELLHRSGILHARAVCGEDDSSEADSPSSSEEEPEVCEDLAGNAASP
Test: TRalpha-Binding Assay and Thyroid Response Element (TRAFalpha1) Reporter Assay.
Conditions: pH 7; 4 °C
From the text: EC50 is the concentration of compound required to inhibit 50% of T3-induced TRalpha-activation in CHOK1 cells stably transfected with hTRalpha using alkaline phosphatase reporter assay.

Structure (SMILES): CC(C)c1cc(Oc2c(Br)cc(CCC(=O)O)cc2Br)cc(/C=C/c2ccncc2)c1O [3-{3,5-dibromo-4-[4-hydroxy-3-(propan-2-yl)-5-[(E)-2-(pyridin-4-yl)ethenyl]phenoxy]phenyl}propanoic acid]
- EC50: 32 nM

Reference: BindingDB's records for doi:10.1021/jm060521i (Karo Bio, 2006)
